From PubChem BioAssay (NCI)
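Following 48 hours of exposure in 96-well plates, responses at five concentrations were used to interpolate endpoints linearly. GI50 marks 50% less growth. TGI: total growth inhibition.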

Tests used:
Test in all cases: DTP human tumour cell line panel, 48 h
[1] = system: A498 renal
[2] = system: RPMI-8226 leukemia
[3] = system: MCF7 breast
[4] = system: MDA-MB-435
[5] = system: OVCAR-4 ovarian
[6] = system: HOP-62 NSCLC
[7] = system: SNB-19 CNS
[8] = system: DU-145 prostate
[9] = system: IGROV1 ovarian
[10] = system: UO-31 renal

Compound | TGI [1] [µM] | TGI [2] [µM] | TGI [3] [µM] | TGI [4] [µM] | TGI [5] [µM] | TGI [6] [µM] | TGI [7] [µM] | TGI [8] [µM] | TGI [9] [µM] | TGI [10] [µM] | GI50 [1] [µM] | GI50 [2] [µM] | GI50 [3] [µM] | GI50 [4] [µM] | GI50 [5] [µM] | GI50 [6] [µM] | GI50 [7] [µM] | GI50 [8] [µM] | GI50 [9] [µM] | GI50 [10] [µM]
COc1ccc(C2=[S+]C(c3ccccc3)(c3ccccc3)c3ccccc32)cc1 | 44.6 | 53.9 | > 100 | 41.1 | 62.2 | 79.3 | > 100 | 65.7 | > 100 |  |  |  |  |  |  |  |  |  |  | 
O=c1nc2ccc([N+](=O)[O-])cc2[n+]([O-])[nH]1 | > 100 | > 100 | > 100 | > 100 | > 100 | > 100 | > 100 | > 100 | > 100 | > 100 |  |  |  |  |  |  |  |  |  | 
C/C(=N\NC(=O)c1ccc(Cl)cc1)c1nc2ncccc2[nH]1 | > 100 | > 100 | > 100 | > 100 | 47.9 | > 100 | > 100 | > 100 | > 100 | > 100 |  |  |  |  |  |  |  |  |  | 
COc1cc(-c2ccc(N=Nc3ccc4c(S(=O)(=O)O)cc(S(=O)(=O)O)c(N)c4c3O)c(OC)c2)ccc1N=Nc1ccc2c(S(=O)(=O)O)cc(S(=O)(=O)O)c(N)c2c1O | > 100 | > 100 | > 100 |  | > 100 | > 100 | > 100 |  | > 100 | > 100 |  |  |  |  |  |  |  |  |  | 
N#[N+]c1c([O-])c2ccccc2c2ccccc12 | 46.9 | > 100 | > 100 | > 100 | > 100 | > 100 | > 100 | > 100 | > 100 | > 100 |  |  |  |  |  |  |  |  |  | 
CCOC(=O)NC(Nc1cc(Cl)ccc1OC)(C(F)(F)F)C(F)(F)F | > 100 | > 100 | > 100 | > 100 |  | > 100 | > 100 | > 100 | > 100 | > 100 |  |  |  |  |  |  |  |  |  | 
c1ccc2c(c1)NCc1cc3ccccc3nc1O2 | > 100 | > 100 | > 100 |  | > 100 | > 100 | > 100 |  | > 100 | > 31.6 |  |  |  |  |  |  |  |  |  | 
CCOC(=O)/C=C/c1c(C)[nH]c(=O)[nH]c1=O | > 250 | > 250 | > 250 |  | > 158 | > 250 | > 250 |  | > 250 | > 250 |  |  |  |  |  |  |  |  |  | 
O=C1CCC[C@H]2O[C@@H](COC(=O)c3ccccc3)C[C@H]2O1 | > 100 | > 100 | > 100 | > 100 | > 100 | > 100 | > 100 | > 100 | > 100 | > 100 |  |  |  |  |  |  |  |  |  | 
c1cc2c3c(c1)c1cc4c(cc1c[n+]3CC2)OCO4 | 14.9 | 14 | 30.3 |  | 47.7 | 15.4 | 13.5 |  | 63.5 | > 176 |  |  |  |  |  |  |  |  |  | 
Cc1ccc(Cl)cc1N=NC(=O)NNc1cc(Cl)ccc1C | 48.8 | > 100 | 80.7 | 99 |  | 23.6 | 43.2 | 58.3 | 38.3 | 35.7 |  |  |  |  |  |  |  |  |  | 
O=C1C(CO)=C[C@H](O)[C@H]2O[C@@H]12 | 519 | 332 | 271 |  | 317 | > 612 | > 625 |  | 473 | 507 |  |  |  |  |  |  |  |  |  | 
c1ccc2c(c1)c1ccccc1n2Cn1c2ccccc2c2ccccc21 | > 100 | > 100 |  | > 100 | > 100 | > 100 | > 100 | > 100 | > 100 | > 100 |  |  |  |  |  |  |  |  |  | 
Cc1cn(-c2cccc(NC(=O)c3ccc(C)c(Nc4nccc(-c5cccnc5)n4)c3)c2)cn1 | 23 | 5.41 | 4.74 | 3.87 | 3.11 | 3.77 | > 100 | 17.9 | 3.92 | 3.05 | 10.9 | 1.87 | 1.94 | 1.86 | 1.71 | 2 | 2.4 | 3.73 | 2.08 | 1.5
COc1cccc2c1C(=O)c1c(O)c3c(c(O)c1C2=O)C[C@@](O)(C(=O)COC(=O)c1ccccc1)C[C@@H]3OC1CC(N)C(O)C(C)O1 (stereo not given in full) | 0.261 | 0.61 |  | 0.284 |  |  |  | 1.1 |  | 2.06 | 0.0771 | 0.193 |  | 0.137 |  |  |  | 0.252 |  | 0.497
O=C(NN1C(=O)C(Cl)C1c1cccc([N+](=O)[O-])c1)c1ccccc1O (stereo not given) |  | > 100 |  |  | > 100 | > 100 | > 100 |  | > 100 | > 100 |  |  |  |  |  |  |  |  |  | 
Cc1cc(N/N=C/c2nc(-c3ccc(Cl)cc3)oc2C)c2cc(Br)ccc2n1 | 26.5 | 4.81 |  | 3.94 | 3.69 | 3.94 | 17.7 | 7.67 | 16.7 | 26.8 | 10.4 | 1.95 |  | 1.91 | 1.87 | 1.87 | 4.13 | 2.66 | 3.14 | 13.9
C/C(=N\NC(=S)N1CCC(N2CCCCC2)CC1)c1ccccn1 | 5.21 | > 29.4 | 10.6 | 6 | 16.7 | > 19.8 | 11.3 | 11.2 | 12.3 | 3.3 |  |  |  |  |  |  |  |  |  | 
